Test results published in patent US20140187430A1, “Compositions and Methods for Identifying Autism Spectrum Disorders” (George Washington University, priority 2010, published 2014).
“Also recorded” adds a separate entry of the source.

Experiments:
Format in all cases: cell-based, human
BCL-2 = assay: qRT-PCR of BCL-2 transcript in LCL after 5-Aza-2-deoxycytidine treatment; conditions: 5 μM, 48 hours
Method: (§1) LCL, which were obtained from the Autism Genetic Research Exchange (AGRE; Los Angeles, Calif.) were derived from lymphocytes of autistic and normal siblings and cultured as previously described (Hu et al. (2006) BMC Genomics 7, 118). Demethylating treatments were carried out by incubating cells in culture with 5 μM 5-Aza-2-deoxycytidine (Fluka, St. Louis, Mo.) or vehicle control, DMSO (FisherBioTech, Pittsburgh, Pa.) for 48 hours before harvesting cells.
(§2) Genomic DNA was isolated using the Qiagen DNeasy™ Blood and Tissue Kit (Valencia, Calif.) and used for bisulfite modification for methylation analyses. Total RNA was isolated using TRIzol reagent (Invitrogen, Carlsbad, Calif.) according to the manufacturer's protocol and used for gene expression analyses by quantitative RT-PCR. […]
(§3) Two candidate genes, BCL-2 and RORA, were chosen for quantitative real-time (RT)-PCR analysis to examine the correlation between expression of mRNA transcript and methylation status as predicted by microarray analysis, as well as to examine the effect of 5-Aza-2-deoxycytidine treatment on transcript levels. […] The qPCR reactions (in triplicate) were analyzed on an ABI Prism 7300 Sequence Detection System and transcript levels of BCL-2 and RORA were quantified and normalized to standard curves obtained using universal 18S rRNA primers.

RORA = assay: qRT-PCR of RORA transcript in LCL after 5-Aza-2-deoxycytidine treatment; conditions: 5 μM, 48 hours
Method: as §1, §2, §3

[1] = test system: upstream CpG island region of RORA; assay: Methylation-specific PCR (MSP) of upstream CpG island region of RORA in LCL; conditions: LCL of autistic individuals; 5 μM, 48 hours
Method: as §1
Two ug of genomic DNA isolated from LCL were treated with sodium bisulfite using the Active Motif MethylDetector kit (Carlsbad, Calif.) according to the manufacturer's specifications. Successful bisulfite treatment and conversion was verified using positive control PCR primers for the p16 (CDKN2A) locus provided in the MethylDetector kit.
For methylation-specific PCR (MSP), 2 sets of primers spanning a region approximately 300 bp upstream of the first exon of RORA (UHNhscpg0014103; chr15:59309160-59309428) were designed according to assumed differences in methylation status (i.e., fully methylated or fully unmethylated). These primers were previously successful in identifying methylation-specific silencing of RORA in several gastric cancer cell lines (Yamashita et al. (2006) Cancer Science 97, 64-71). Bisulfite-modified genomic DNA was used as a template for PCR and PCR products were resolved by agarose gel electrophoresis.

[2] = LCL from the "mild" undiagnosed co-twins
[3] = LCL of autistic individuals, vs DMSO vehicle

For `Nc1ncn([C@H]2C[C@H](O)[C@@H](CO)O2)c(=O)n1` [5-Aza-2-deoxycytidine], the “change in BCL-2 expression level with treatment” value (BCL-2; [2]) was “no statistically significant increases”, the “fold-change in BCL-2 transcript expression following treatment” value (BCL-2; [3]) was 1.5 fold and the “change in RORA expression level with treatment” value (RORA; [2]) was “no statistically significant increases”. The “fold-change in RORA transcript expression following treatment” value (RORA; [3]) was 1.8 fold and the “methylated PCR product of RORA promoter region (MSP) following treatment” value [1] was “absence of methylated product; also recorded: absence of methylation”.
